The text below walks through data of patent US20250136578A1 (Kolm Therapeutics Inc., priority 2023, published 2025).

pEC50, pIC50: −log10 of the molar value. Like-named read-outs stand apart in the source and are kept apart here.

One experiment deals with AR / CBP ternary complex (Homo sapiens, UniProt P10275+Q92793). Nature of the experiment: Ternary complex formation assay (sandwich ELISA, AR capture, CBP antibody detection) in VCaP cell lysates. Type of experiment: cell-based. The method, boiled down:
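Sandwich ELISA: plates were coated with anti-AR antibody (AR441) and given lysates of VCaP cells treated 1.5 h with bifunctional compound in charcoal-stripped serum. Co-captured CBP or p300 was probed with rabbit mAbs and HRP secondary. Chemifluorescent signal (ex 570/em 585) was read at 0, 5 and 15 min.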
On the technique in general: An ELISA detects its analyte on a solid surface through an enzyme-linked reagent.

A further experiment deals with VCaP cells. In words: VCaP growth inhibition assay (CTG). Type of experiment: cell-based. The following applies: Homo sapiens, 216 h, 30 pM R1881, 9 days. The procedure, abridged: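 Growth was measured by CTG luminescence after a 9-day exposure of VCaP cells to compound (final 10 fM–100 nM, fivefold steps) in the presence of 30 pM final R1881, in phenol red-free DMEM/5% CSS. IC50 values were derived by nonlinear 4-parameter regression of RLU against concentration.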

Setting [1] is: treated 1.5 hours, rabbit CBP or p300 antibody detection, average, read-out: Average Ternary Complex.

Chain of AR / CBP ternary complex (P10275 whole entry): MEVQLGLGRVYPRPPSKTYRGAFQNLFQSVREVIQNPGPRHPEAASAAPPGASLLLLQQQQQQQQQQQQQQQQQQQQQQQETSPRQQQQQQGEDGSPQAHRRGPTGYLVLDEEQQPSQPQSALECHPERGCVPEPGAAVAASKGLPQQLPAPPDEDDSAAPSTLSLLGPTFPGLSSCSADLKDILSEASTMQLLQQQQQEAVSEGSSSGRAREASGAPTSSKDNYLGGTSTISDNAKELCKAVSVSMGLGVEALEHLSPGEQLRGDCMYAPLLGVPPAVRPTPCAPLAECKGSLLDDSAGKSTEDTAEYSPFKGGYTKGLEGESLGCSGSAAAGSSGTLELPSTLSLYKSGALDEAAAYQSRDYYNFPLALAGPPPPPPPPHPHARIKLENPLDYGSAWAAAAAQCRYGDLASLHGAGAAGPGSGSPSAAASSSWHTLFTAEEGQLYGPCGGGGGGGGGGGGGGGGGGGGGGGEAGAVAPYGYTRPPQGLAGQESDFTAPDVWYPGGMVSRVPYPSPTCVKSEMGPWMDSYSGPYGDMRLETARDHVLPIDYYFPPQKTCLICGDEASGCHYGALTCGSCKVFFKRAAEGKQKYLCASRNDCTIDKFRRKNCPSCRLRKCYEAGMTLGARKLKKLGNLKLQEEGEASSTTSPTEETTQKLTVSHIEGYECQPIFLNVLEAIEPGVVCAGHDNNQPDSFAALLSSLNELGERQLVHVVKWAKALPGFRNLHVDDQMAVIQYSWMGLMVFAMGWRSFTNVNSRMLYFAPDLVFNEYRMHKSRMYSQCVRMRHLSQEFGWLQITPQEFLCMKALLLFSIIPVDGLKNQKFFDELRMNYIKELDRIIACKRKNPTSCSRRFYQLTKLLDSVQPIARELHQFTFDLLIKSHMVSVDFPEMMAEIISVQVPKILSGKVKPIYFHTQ
Chain of AR / CBP ternary complex (Q92793 2-2442): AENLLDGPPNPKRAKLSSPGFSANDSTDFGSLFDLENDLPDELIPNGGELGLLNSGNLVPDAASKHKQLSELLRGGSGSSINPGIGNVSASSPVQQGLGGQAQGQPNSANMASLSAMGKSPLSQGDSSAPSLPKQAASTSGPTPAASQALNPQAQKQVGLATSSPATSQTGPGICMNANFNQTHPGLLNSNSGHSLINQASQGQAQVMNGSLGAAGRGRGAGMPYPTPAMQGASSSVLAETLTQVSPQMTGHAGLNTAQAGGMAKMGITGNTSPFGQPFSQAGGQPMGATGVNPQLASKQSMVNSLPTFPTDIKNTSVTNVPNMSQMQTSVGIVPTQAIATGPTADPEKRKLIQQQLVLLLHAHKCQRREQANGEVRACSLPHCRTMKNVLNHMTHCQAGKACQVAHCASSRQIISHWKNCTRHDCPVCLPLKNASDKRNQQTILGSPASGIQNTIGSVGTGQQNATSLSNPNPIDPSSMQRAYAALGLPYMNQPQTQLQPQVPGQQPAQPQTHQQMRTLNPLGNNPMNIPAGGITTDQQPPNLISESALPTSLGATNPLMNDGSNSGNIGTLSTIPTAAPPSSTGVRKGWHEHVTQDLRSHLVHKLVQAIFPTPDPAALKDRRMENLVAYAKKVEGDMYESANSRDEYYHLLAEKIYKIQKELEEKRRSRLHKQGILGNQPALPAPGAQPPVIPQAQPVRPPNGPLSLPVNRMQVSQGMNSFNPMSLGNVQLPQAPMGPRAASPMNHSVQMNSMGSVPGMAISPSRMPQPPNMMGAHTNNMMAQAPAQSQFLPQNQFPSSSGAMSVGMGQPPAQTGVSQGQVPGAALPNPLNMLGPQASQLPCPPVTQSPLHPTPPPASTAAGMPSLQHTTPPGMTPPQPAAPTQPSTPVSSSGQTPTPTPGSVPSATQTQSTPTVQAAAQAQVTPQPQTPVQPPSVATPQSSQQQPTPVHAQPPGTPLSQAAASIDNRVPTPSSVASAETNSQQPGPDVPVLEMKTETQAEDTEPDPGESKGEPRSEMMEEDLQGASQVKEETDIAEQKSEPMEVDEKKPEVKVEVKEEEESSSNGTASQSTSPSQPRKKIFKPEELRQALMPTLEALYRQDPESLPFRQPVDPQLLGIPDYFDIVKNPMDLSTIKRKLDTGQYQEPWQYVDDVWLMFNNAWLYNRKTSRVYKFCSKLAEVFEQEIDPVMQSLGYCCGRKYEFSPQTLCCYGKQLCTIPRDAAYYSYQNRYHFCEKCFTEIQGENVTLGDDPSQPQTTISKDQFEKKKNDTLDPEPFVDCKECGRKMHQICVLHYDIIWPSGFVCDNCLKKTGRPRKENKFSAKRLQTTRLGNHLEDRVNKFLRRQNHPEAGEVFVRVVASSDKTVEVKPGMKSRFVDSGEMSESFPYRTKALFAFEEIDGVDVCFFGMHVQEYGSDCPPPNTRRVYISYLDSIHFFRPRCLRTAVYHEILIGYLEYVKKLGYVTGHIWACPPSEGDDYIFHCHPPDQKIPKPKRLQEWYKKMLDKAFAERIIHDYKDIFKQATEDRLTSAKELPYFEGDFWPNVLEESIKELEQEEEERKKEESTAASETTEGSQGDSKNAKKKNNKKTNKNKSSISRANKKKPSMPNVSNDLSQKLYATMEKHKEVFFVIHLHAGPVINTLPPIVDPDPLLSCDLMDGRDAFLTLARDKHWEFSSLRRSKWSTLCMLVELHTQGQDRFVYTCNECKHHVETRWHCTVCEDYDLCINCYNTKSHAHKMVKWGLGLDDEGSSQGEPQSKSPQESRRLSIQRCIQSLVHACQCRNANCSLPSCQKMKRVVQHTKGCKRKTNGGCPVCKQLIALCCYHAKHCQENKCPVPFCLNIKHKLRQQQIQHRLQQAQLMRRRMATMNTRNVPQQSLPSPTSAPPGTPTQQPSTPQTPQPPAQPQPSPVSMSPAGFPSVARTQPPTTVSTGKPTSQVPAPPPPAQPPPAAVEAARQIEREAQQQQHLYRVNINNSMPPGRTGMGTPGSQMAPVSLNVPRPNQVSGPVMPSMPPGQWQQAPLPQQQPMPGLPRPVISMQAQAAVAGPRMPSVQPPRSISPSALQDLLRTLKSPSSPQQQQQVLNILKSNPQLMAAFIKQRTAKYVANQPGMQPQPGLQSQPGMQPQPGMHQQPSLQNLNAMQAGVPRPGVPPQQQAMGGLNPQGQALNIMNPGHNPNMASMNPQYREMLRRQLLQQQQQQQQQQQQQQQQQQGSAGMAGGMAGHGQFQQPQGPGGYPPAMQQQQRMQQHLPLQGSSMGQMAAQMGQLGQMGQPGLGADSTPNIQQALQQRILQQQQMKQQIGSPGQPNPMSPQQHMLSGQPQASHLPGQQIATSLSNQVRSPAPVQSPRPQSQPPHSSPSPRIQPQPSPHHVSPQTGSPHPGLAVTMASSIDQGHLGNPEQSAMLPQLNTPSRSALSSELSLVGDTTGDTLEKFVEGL

Broadly, the pIC50 is the IC50 on a negative log10 scale, so that one unit is a factor of ten. Low readings indicate a high IC50, high ones a low IC50. Consider `Cn1c(=O)sc2ccc(-c3cccc4cc(-c5ccc(CCC6CCN(c7ccc(C(=O)N[C@H]8CC[C@H](Oc9ccc(C#N)c(Cl)c9)CC8)nn7)CC6)nc5)ncc34)cc21` [Compound 55, N-[4-(3-chloro-4-cyano-phenoxy)cyclohexyl]-6-[4-[2-[5-[8-(3-methyl-2-oxo-1,3-benzothiazol-5-yl)-3-isoquinolyl]-2-pyridyl]ethyl]-1-piperidyl]pyridazine-3-carboxamide], for which the pEC50 at AR / CBP ternary complex (setting [1]) is > 9.00. In the experiment with VCaP cells, the pIC50 was < 7.00.
In the same order, the values of `CC(=O)N1CCc2c(c(N3CCCc4cc(-c5cnn(C)c5)c(C(F)F)cc43)nn2[C@H]2CC[C@H](CN3CCN(c4ccc(C(=O)N[C@H]5CC[C@H](Oc6ccc(C#N)c(Cl)c6)CC5)nn4)CC3)CC2)C1` [Compound 209, 6-[4-[[4-[5-acetyl-3-[7-(difluoromethyl)-6-(1-methylpyrazol-4-yl)-3,4-dihydro-2H-quinolin-1-yl]-6,7-dihydro-4H-pyrazolo[4,3-c]pyridin-1-yl]cyclohexyl]methyl]piperazin-1-yl]-N-[4-(3-chloro-4-cyano-phenoxy)cyclohexyl]pyridazine-3-carboxamide] are > 9.00 and ≥ 10.00.
In the same order, the values of `CC(=O)N1CCc2c(c(N3CCCc4cc(-c5cnn(C)c5)c(C(F)F)cc43)nn2[C@H]2CC[C@@H](OC3CN(c4ccc(C(=O)N[C@H]5CC[C@H](Oc6ccc(C#N)c(Cl)c6)CC5)nn4)C3)CC2)C1` [Compound 223, 6-[3-[4-[5-acetyl-3-[7-(difluoromethyl)-6-(1-methylpyrazol-4-yl)-3,4-dihydro-2H-quinolin-1-yl]-6,7-dihydro-4H-pyrazolo[4,3-c]pyridin-1-yl]cyclohexoxy]azetidin-1-yl]-N-[4-(3-chloro-4-cyano-phenoxy)cyclohexyl]pyridazine-3-carboxamide] are > 9.00 and ≥ 10.00.
Taken in the same sequence, the figures for `CN1C(=O)CCc2cc(N3CCCc4cc(-c5ccc(CCC6CCN(c7ccc(C(=O)N[C@H]8CC[C@H](Oc9ccc(C#N)c(Cl)c9)CC8)nn7)CC6)nc5)ncc43)ccc21` [Compound 60, N-[4-(3-chloro-4-cyano-phenoxy)cyclohexyl]-6-[4-[2-[5-[1-(1-methyl-2-oxo-3,4-dihydroquinolin-6-yl)-3,4-dihydro-2H-1,7-naphthyridin-6-yl]-2-pyridyl]ethyl]-1-piperidyl] pyridazine-3-carboxamide] were < 7.00 and < 7.00.
For `Cn1c(=O)sc2ccc(N3CCCc4cc(-c5ccc(CCC6CCN(c7ccc(C(=O)N[C@H]8CC[C@H](Oc9ccc(C#N)c(Cl)c9)CC8)nn7)CC6)nc5)ncc43)cc21` [Compound 57, N-[4-(3-chloro-4-cyano-phenoxy)cyclohexyl]-6-[4-[2-[5-[1-(3-methyl-2-oxo-1,3-benzothiazol-5-yl)-3,4-dihydro-2H-1,7-naphthyridin-6-yl]-2-pyridyl]ethyl]-1-piperidyl]pyridazine-3-carboxamide], the pEC50 on AR / CBP ternary complex (setting [1]) was > 9.00. This molecule also showed a pIC50 with VCaP cells of 7.00 to 9.00.
`CC(=O)N1CCc2c(c(N3CCCc4cc(-c5cnn(C)c5)c(C(F)F)cc43)nn2CC2CC3(CCN(c4ccc(C(=O)N[C@H]5CC[C@H](Oc6ccc(C#N)c(Cl)c6)CC5)nn4)CC3)C2)C1` [Compound 130, 6-[2-[[5-acetyl-3-[7-(difluoromethyl)-6-(1-methylpyrazol-4-yl)-3,4-dihydro-2H-quinolin-1-yl]-6,7-dihydro-4H-pyrazolo[4,3-c]pyridin-1-yl]methyl]-7-azaspiro[3.5]nonan-7-yl]-N-[4-(3-chloro-4-cyano-phenoxy)cyclohexyl]pyridazine-3-carboxamide]: on AR / CBP ternary complex (setting [1]), the pEC50 was < 7.00. The molecule further had a pIC50 with VCaP cells of 9.00 to 10.00.
Regarding `CC(=O)N1CCc2c(c(N3CCCc4cc(-c5cnn(C)c5)c(C(F)F)cc43)nn2C2CCC3(CC2)CN(C2CN(c4ccc(C(=O)N[C@H]5CC[C@H](Oc6ccc(C#N)c(Cl)c6)CC5)nn4)C2)C3)C1` [Compound 237], the pEC50 on AR / CBP ternary complex (setting [1]) was > 9.00. Also, the pIC50 in the experiment with VCaP cells was ≥ 10.00.
Regarding `CC(=O)N1CCc2c(c(N3CCCc4cc(-c5ccc(CCC6CCN(c7ccc(C(=O)N[C@H]8CC[C@H](Oc9ccc(C#N)c(Cl)c9)CC8)nn7)CC6)cc5)c(C(F)F)cc43)nn2C2CCOCC2)C1` [Compound 154, 6-[4-[2-[4-[1-(5-acetyl-1-tetrahydropyran-4-yl-6,7-dihydro-4H-pyrazolo[4,3-c]pyridin-3-yl)-7-(difluoromethyl)-3,4-dihydro-2H-quinolin-6-yl]phenyl]ethyl]-1-piperidyl]-N-[4-(3-chloro-4-cyano-phenoxy)cyclohexyl]pyridazine-3-carboxamide], the pEC50 on AR / CBP ternary complex (setting [1]) is > 9.00. The molecule further gave a pIC50 with VCaP cells of 9.00 to 10.00.
As to `CC(=O)N1CCc2c(c(-c3cccc4cc(-c5cnn(CC6CC7(C6)CN(c6ccc(C(=O)N[C@H]8CC[C@H](Oc9ccc(C#N)c(Cl)c9)CC8)nn6)C7)c5)ncc34)nn2C2CCOCC2)C1` [Compound 46, 6-[6-[[4-[8-(5-acetyl-1-tetrahydropyran-4-yl-6,7-dihydro-4H-pyrazolo[4,3-c]pyridin-3-yl)-3-isoquinolyl]pyrazol-1-yl]methyl]-2-azaspiro[3.3]heptan-2-yl]-N-[4-(3-chloro-4-cyano-phenoxy)cyclohexyl]pyridazine-3-carboxamide], the pEC50 on AR / CBP ternary complex (setting [1]) is > 9.00. This molecule also showed a negative logarithm of the IC50 (pIC50) in the experiment with VCaP cells of 9.00 to 10.00.
Consider `CC(=O)N1CCc2c(c(-c3cccc4cc(-c5cnn(C)c5)ncc34)nn2C2CCN(CCC3CCN(c4ccc(C(=O)N[C@H]5CC[C@H](Oc6ccc(C#N)c(Cl)c6)CC5)nn4)CC3)CC2)C1` [Compound 5, 6-[4-[2-[4-[5-acetyl-3-[3-(1-methylpyrazol-4-yl)-8-isoquinolyl]-6,7-dihydro-4H-pyrazolo[4,3-c]pyridin-1-yl]-1-piperidyl]ethyl]-1-piperidyl]-N-[4-(3-chloro-4-cyano-phenoxy)cyclohexyl]pyridazine-3-carboxamide], for which the pEC50 at AR / CBP ternary complex (setting [1]) is > 9.00. In addition, the negative logarithm of the IC50 (pIC50) in the experiment with VCaP cells was ≥ 10.00.
In the case of `CC(=O)N1CCc2c(c(N3CCCc4cc(-c5cnn(C)c5)c(C(F)F)cc43)nn2[C@H]2CC[C@@H](C3CCC4(CC3)CN(c3ccc(C(=O)N[C@H]5CC[C@H](Oc6ccc(C#N)c(Cl)c6)CC5)nn3)C4)CC2)C1` [Compound 242, 6-[7-[4-[5-acetyl-3-[7-(difluoromethyl)-6-(1-methylpyrazol-4-yl)-3,4-dihydro-2H-quinolin-1-yl]-6,7-dihydro-4H-pyrazolo[4,3-c]pyridin-1-yl]cyclohexyl]-2-azaspiro[3.5]nonan-2-yl]-N-[4-(3-chloro-4-cyano-phenoxy)cyclohexyl]pyridazine-3-carboxamide], the pEC50 at AR / CBP ternary complex (setting [1]) was > 9.00. This molecule also gave a pIC50 in the experiment on VCaP cells of 9.00 to 10.00.
Take `CC(=O)N1CCc2c(c(N3CCCc4cc(-c5cnn(C)c5)c(C(F)F)cc43)nn2C2CCN(C(=O)CC3CCN(c4ccc(C(=O)N[C@H]5CC[C@H](N(C)c6ccc(C#N)c(Cl)c6)CC5)cc4)CC3)CC2)C1` [Compound 13, 4-[4-[2-[4-[5-acetyl-3-[7-(difluoromethyl)-6-(1-methylpyrazol-4-yl)-3,4-dihydro-2H-quinolin-1-yl]-6,7-dihydro-4H-pyrazolo[4,3-c]pyridin-1-yl]-1-piperidyl]-2-oxo-ethyl]-1-piperidyl]-N-[4-(3-chloro-4-cyano-N-methyl-anilino)cyclohexyl]benzamide]: the pEC50 at AR / CBP ternary complex (read-out: Average Ternary Complex, treated 1.5 hours, rabbit CBP or p300 antibody detection) is > 9.00. This molecule gave a pIC50 with VCaP cells of 9.00 to 10.00.
Consider `CC(=O)N1CCc2c(c(N3CCCc4cc(C#N)ncc43)nn2C2CCN(C(=O)C3CCN(c4ccc(C(=O)N[C@H]5CC[C@H](Oc6ccc(C#N)c(Cl)c6)CC5)nn4)CC3)CC2)C1` [Compound 69, 6-[4-[4-[5-acetyl-3-(6-cyano-3,4-dihydro-2H-1,7-naphthyridin-1-yl)-6,7-dihydro-4H-pyrazolo[4,3-c]pyridin-1-yl]piperidine-1-carbonyl]-1-piperidyl]-N-[4-(3-chloro-4-cyano-phenoxy)cyclohexyl]pyridazine-3-carboxamide], for which the pEC50 on AR / CBP ternary complex (setting [1]) was > 9.00. The pIC50 in the experiment with VCaP cells is ≥ 10.00.
Turning to `COC(=O)N1c2ccc3c(nc(Cc4ccccc4)n3[C@H]3CCC[C@H](CN4CCN(c5ccc(C(=O)N[C@H]6CC[C@H](Oc7ccc(C#N)c(Cl)c7)CC6)nn5)CC4)C3)c2CC[C@@H]1C` [Compound 232, methyl (7S)-2-benzyl-3-[(1S,3S)-3-[[4-[6-[[4-(3-chloro-4-cyano-phenoxy)cyclohexyl]carbamoyl]pyridazin-3-yl]piperazin-1-yl]methyl]cyclohexyl]-7-methyl-8,9-dihydro-7H-imidazo[4,5-f]quinoline-6-carboxylate], on AR / CBP ternary complex (setting [1]), the pEC50 is 8.00 to 9.00. In the experiment on VCaP cells, this molecule had a pIC50 of 7.00 to 9.00.
In the case of `CC(=O)N1CCc2c(c(N3CCCc4cc(-c5cnn(C)c5)c(C(F)F)cc43)nn2[C@H]2CC[C@]3(CCCN(C4CN(c5ccc(C(=O)N[C@H]6CC[C@H](Oc7ccc(C#N)c(Cl)c7)CC6)nn5)C4)C3)CC2)C1` [Compound 268, 6-[3-[9-[5-acetyl-3-[7-(difluoromethyl)-6-(1-methylpyrazol-4-yl)-3,4-dihydro-2H-quinolin-1-yl]-6,7-dihydro-4Hpyrazolo[4,3-c]pyridin-1-yl]-2-azaspiro[5.5]undecan-2-yl]azetidin-1-yl]-N-[4-(3-chloro-4-cyanophenoxy)cyclohexyl]pyridazine-3-carboxamide], the pEC50 at AR / CBP ternary complex (setting [1]) was > 9.00. Moreover, the negative-log IC50 (pIC50) in the experiment with VCaP cells is 9.00 to 10.00.
Turning to `CC(=O)N1CCc2c(c(-c3cccc4cc(-c5ccc(CCC6CCN(c7ccc(C(=O)N[C@H]8CC[C@H](Oc9ccc(C#N)c(Cl)c9)CC8)nn7)CC6)nc5)ncc34)nn2C2CCOCC2)C1` [Compound 25, 6-[4-[2-[5-[8-(5-acetyl-1-tetrahydropyran-4-yl-6,7-dihydro-4H-pyrazolo[4,3-c]pyridin-3-yl)-3-isoquinolyl]-2-pyridyl]ethyl]-1-piperidyl]-N-[4-(3-chloro-4-cyano-phenoxy)cyclohexyl]pyridazine-3-carboxamide], the pEC50 on AR / CBP ternary complex (setting [1]) was > 9.00. The pIC50 in the experiment on VCaP cells is ≥ 10.00.
